pIC50: −log10 of the molar value. Read-outs that look alike come from different tables or passages of the source.

Data set [1] deals with normal human gingival fibroblasts. As to the kind of experiment: MTT cell viability assay, normal fibroblasts. It counts as cell-based. As to conditions: 48 h. The procedure:
(§1) Cells and reagents. Human SCC-4, SCC-9 and SCC-25 cells, derived from a human oral tongue SCC were obtained from the ATCC (CRL-1624; CRL-1629 and CRL-1628, respectively) and maintained at 1:1 DMEM/F12 (Dulbecco’s modified Eagle medium and Ham’s F12 medium; Gibco, Thermo Fisher, Waltham, MA, USA) supplemented with 10% (v/v) FBS (fetal bovine serum; Invitrogen, Thermo Fisher, Waltham, MA, USA) and 400 ng/mL hydrocortisone (Sigma-Aldrich Co., St. Louis, MO, USA). Primary normal human gingival fibroblasts were obtained from the ATCC (PCS-201-018), maintained in DMEM supplemented with 10% (v/v) FBS, and used in a maximum of 6 passages. Cells were grown in a humidified environment containing 5% CO2 at 37 °C. […] Carboplatin in water (Fauldcarbo®; Libbs Farmacêutica, São Paulo, SP, Brazil) was used as a standard anticancer compound.
(§2) Cell viability assay (cytotoxicity) and stability assay. To assess cell viability, cells were grown in triplicate in 96-well plates (5 × 10^3 cells/well) until confluence when treated with the different compounds as in Machado et al.. Briefly, DMSO in the same concentrations was used as a 100% cell viability control. After 48 h, cells were incubated with 5 mg/mL MTT reagent (3-(4,5-dimethyl-2-thiazolyl)-2,5-diphenyl-2H-tetrazolium bromide) (Sigma-Aldrich Co., St. Louis, MO, USA) for 3.5 h. Formazan crystals were dissolved in MTT solvent (DMSO/methanol 1:1 v/v) and the absorbance at 560 nm was evaluated using an EPOCH microplate spectrophotometer (BioTek Instruments, Winooski, VT, USA) with background absorbance at 670 nm subtracted. Each of the eighteen compounds was tested at six or seven different concentrations, ranging from 0.3 µM to 200 µM in cancer cell lines (SCC-4, SCC-9 and SCC-25) and 0.4 µM to 300 µM in normal primary human gingival fibroblast.
(§3) Statistical analysis, IC50 calculation. IC50 values for MTT assays were obtained by non-linear regression using the GraphPad Prism 5.0 software (GraphPad, San Diego, CA, USA) from at least three independent experiments. Data are presented as means ± SD. A dose-response (inhibitor) vs response curve using the least squares method was used to determine the IC50, SD and R2 of the data. The selectivity index was calculated as S.I. = IC50 of the compound in normal oral fibroblast cells/IC50 of the same compound for each oral cancer cell line (SCC-4, SCC-9 and SCC-25) and the mean was calculated when indicated.
In general terms: Tetrazolium assays rely on reduction of a dye to a coloured formazan, in cell work by metabolically active cells.

Data set [2] deals with SCC-9 (OSCC cells). The data set is described as follows: MTT cell viability assay (cytotoxicity), SCC9. Format: cell-based, Human. As to conditions: for Selective Index (S.I.): IC50 normal oral fibroblasts/IC50 SCC-9. The procedure:
as §1, §2, §3

For data set [3], the system named is SCC-4 cells. The data set is described as follows: MTT cell viability assay, SCC4. Format: cell-based, Human. As to conditions: read-out: SCC4 IC50. The procedure:
as §1, §2, §3

The test system of data set [4] is SCC-25 cells. As to the kind of experiment: MTT cell viability assay, SCC25. It counts as cell-based, Human. As to conditions: read-out: SCC25 IC50. The procedure: as §1, §2, §3
Data set [5] deals with SCC9 cells. The data set is described as follows: Stability test (pre-incubation at 37 °C, then MTT on SCC9). It counts as cell-based, Human. The settings on record: 2 × IC50 pre-incubated 0-48 h at 37 °C, then SCC9 48 h. The procedure: After the desired treatment time was reached, the medium containing the compound was replaced with untreated culture medium and the MTT assay was performed at the end of both experiments.

Data set [6] concerns OSCC cell lines (SCC 4, SCC-9 and SCC-25). The data set is described as follows: MTT assay, mean over three OSCC cell lines and average selectivity index. It counts as cell-based, Human. The settings on record: for pIC50: Homo sapiens, mean of SCC9, SCC25, SCC4, read-out: Oral Tumor Cells Mean IC50; for Average S.I.: average selectivity index over SCC-4, SCC-9, SCC-25 vs normal fibroblasts. The method, then: as §2, §3

Setting [7] is: Homo sapiens, Fibroblast, MTT, Table 1, read-out: Primary Gengival Fibroblast IC50.
[8] abbreviates: Homo sapiens, SCC-9, MTT, 48 h, Table 1, read-out: SCC9—Oral Cancer IC50.
The mark [9] stands for this setting: MTT, Table 1, read-out: Primary Gengival Fibroblast IC50.
Setting [10] is: MTT, 48 h, Table 1, read-out: SCC9—Oral Cancer IC50.

As to `COC(=O)OC1=C(C(c2ccccc2)N(Cc2ccccc2)C(=O)OC)C(=O)c2ccccc2C1=O` (centres unmarked) [5b, Methylbenzyl((3-((methoxycarbonyl)oxy)-1,4-dioxo-1,4-dihydronaphthalen-2yl)(phenyl)methyl)carbamate], the results for the negative logarithm of the IC50 (pIC50) in data set [1] (setting [7]) and in data set [2] (setting [8]) were 4.25 and 4.55, respectively. Moreover, the “Selective Index (S.I.)” value in data set [2] is listed as 1.95.

Turning to `COC(=O)OC1=C(C(c2ccc([N+](=O)[O-])cc2)N(Cc2ccccc2)C(=O)OC)C(=O)c2ccccc2C1=O` (centres unmarked) [5c, Methylbenzyl((3-((methoxycarbonyl)oxy)-1,4-dioxo-1,4-dihydronaphthalen-2-yl)(4-nitrophenyl)methyl)carbamate], the pIC50 in data set [1] (setting [7]) was 4.42; in data set [2] (setting [8]), 4.61. For the same molecule, the “Selective Index (S.I.)” value in data set [2] turned out to be 1.54.

Regarding `COC(=O)OC1=C(C(c2ccc(Br)cc2)N(Cc2ccccc2)C(=O)OC)C(=O)c2ccccc2C1=O` (centres unmarked) [5d, Methylbenzyl((4-bromophenyl)(3-((methoxycarbonyl)oxy)-1,4-dioxo-1,4-dihydronaphthalen-2-yl)methyl)carbamate], the pIC50 is 4.16 in data set [1] (setting [7]) and 4.41 in data set [2] (setting [8]). Besides, the “Selective Index (S.I.)” value in data set [2] came to 1.78.

For `COC(=O)OC1=C(C(c2ccc(F)cc2)N(Cc2ccccc2)C(=O)OC)C(=O)c2ccccc2C1=O` (centres unmarked) [5e, Methylbenzyl((4-fluorophenyl)(3-((methoxycarbonyl)oxy)-1,4-dioxo-1,4-dihydronaphthalen-2-yl)methyl)carbamate], the pIC50 in data set [1] (setting [7]) is 4.40; in data set [2] (setting [8]), 4.66. For the same molecule, in data set [2], the “Selective Index (S.I.)” value is recorded as 1.81.

`COC(=O)OC1=C(C(c2ccc(C)cc2)N(Cc2ccccc2)C(=O)OC)C(=O)c2ccccc2C1=O` (centres unmarked) [5f, Methylbenzyl((3-((methoxycarbonyl)oxy)-1,4-dioxo-1,4-dihydronaphthalen-2-yl)(p-tolyl)methyl)carbamate]: the pIC50 in data set [1] (setting [7]) was 4.34; in data set [2] (setting [8]), 4.65. For the same molecule, the “Selective Index (S.I.)” value in data set [2] came to 2.05.

Regarding `COC(=O)OC1=C(C(c2ccc(OC)cc2)N(Cc2ccccc2)C(=O)OC)C(=O)c2ccccc2C1=O` (centres unmarked) [5g, Methylbenzyl((3-((methoxycarbonyl)oxy)-1,4-dioxo-1,4-dihydronaphthalen-2-yl)(4-methoxyphenyl)methyl)carbamate], the results for the pIC50 in data set [1] (setting [7]) and in data set [2] (setting [8]) were 4.45 and 4.68, respectively. Further, in data set [2], the “Selective Index (S.I.)” value is 1.68.

With `COC(=O)OC1=C(C(c2cccc(Cl)c2)N(Cc2ccccc2)C(=O)OC)C(=O)c2ccccc2C1=O` (centres unmarked) [5i, Methylbenzyl((3-chlorophenyl)(3-((methoxycarbonyl)oxy)-1,4-dioxo-1,4-dihydronaphthalen-2-yl)methyl)carbamate], the pIC50 was 4.37 in data set [1] (setting [7]) and 4.62 in data set [2] (setting [8]). Also, the “Selective Index (S.I.)” value in data set [2] stood at 1.77.

For the molecule `COC(=O)N(Cc1ccccc1)C(C1=C(O)C(=O)c2ccccc2C1=O)c1ccc(F)cc1` (centres unmarked) [6e], the pIC50 in data set [1] (setting [7]) was 3.71; in data set [2] (setting [8]), 4.14. Also, the “Selective Index (S.I.)” value in data set [2] is 2.68.

In the case of `COc1cccc2c1C(=O)c1c(O)c3c(c(O)c1C2=O)C[C@@](O)(C(=O)CO)C[C@@H]3O[C@H]1C[C@H](N)[C@H](O)[C@H](C)O1` [Doxorubicin], the pIC50 is 4.73 in data set [1] (setting [7]); 5.23 in data set [3] (Homo sapiens, SCC-4, MTT, 48 h); 5.95 in data set [4] (Homo sapiens, SCC-25, MTT, 48 h); 5.14 in data set [2] (setting [8]); 5.33 in data set [6]. Also, in data set [5], the “Stability at 37 °C (retained cytotoxicity)” value was “stable even after 48 h”. Besides, the “Selective Index (S.I.)” value in data set [2] worked out at 2.57. The “Average S.I.” value in data set [6] was found to be 3.94.

With `CC(C)=CCC1=C(O)C(=O)c2ccccc2C1=O` [Lapachol, reference compound], the pIC50 in data set [1] (Homo sapiens, Fibroblast, read-out: Primary Gengival Fibroblast IC50) was 3.99; in data set [3] (Homo sapiens, SCC-4, 48 h), 4.26; in data set [4] (Homo sapiens, SCC-25, 48 h), 4.07; in data set [2] (Homo sapiens, SCC-9, 48 h, read-out: SCC9 IC50), 4.38; in data set [2] (Homo sapiens, SCC-9, 48 h, read-out: SCC9—Oral Cancer IC50), 4.38; in data set [6] it was 4.21. Moreover, the “Selective Index (S.I.)” value in data set [2] is given as 2.41. Besides, in data set [6], the “Average S.I.” value came to 1.66.

Consider “Methyl benzyl((3-chloro-phenyl)(3-((methoxycarbonyl)oxy)-1,4-dioxo-1,4-dihydronaphthalen-2-yl)methyl)carbamate [6i]”, for which the pIC50 is 4.13 in data set [1] (setting [9]) and 4.15 in data set [2] (setting [10]). In data set [2], the “Selective Index (S.I.)” value came to 1.03.

On to “Methyl benzyl((3-methyl-phenyl)(3-((methoxycarbonyl)oxy)-1,4-dioxo-1,4-dihydronaphthalen-2-yl)methyl)carbamate [6h]”, for which the pIC50 in data set [1] (setting [9]) is 4.27; in data set [1] (MTT, Table 2, read-out: Primary Gingival Fibroblast IC50), 4.27; in data set [3] (MTT, 48 h) it was 4.01; in data set [4] (MTT, 48 h), 4.25; in data set [2] (setting [10]), 4.95. In data set [2], the “Selective Index (S.I.)” value was found to be 4.83. Moreover, the “Average S.I.” value in data set [6] is 1.29.

In the case of “Methyl benzyl((4-chlorophenyl)(3-((methoxycarbonyl)oxy)-1,4-dioxo-1,4-dihydronaphthalen-2-yl)methyl)carbamate [5a]”, the negative logarithm of the IC50 (pIC50) in data set [1] (setting [9]) was 4.43; in data set [2] (setting [10]), 4.63. Also, the “Selective Index (S.I.)” value in data set [2] is on record as 1.61.

Consider “Methyl benzyl((4-nitrophenyl)(3-((methoxycarbonyl)oxy)-1,4-dioxo-1,4-dihydronaphthalen-2-yl)methyl)carbamate [6c]”, for which the figures for the negative-log IC50 (pIC50) in data set [1] (setting [9]) and in data set [2] (setting [10]) were 3.83 and 4.25, respectively. Moreover, the “Selective Index (S.I.)” value in data set [2] is on record as 2.63.

Turning to “Methyl benzyl((phenyl)(3-((methoxycarbonyl)oxy)-1,4-dioxo-1,4-dihydronaphthalen-2-yl)methyl)carbamate [6b]”, the pIC50 in data set [1] (setting [9]) is 3.64; in data set [2] (setting [10]), 4.09. In data set [2], the “Selective Index (S.I.)” value was determined as 2.79.

Turning to “Methylbenzyl((3-((methoxycarbonyl)oxy)-1,4-dioxo-1,4-dihydronaphthalen-2-yl)(m-tolyl) methyl)carbamate [5h]”, the figures for the pIC50 in data set [1] (setting [9]) and in data set [2] (setting [10]) were 4.31 and 4.60, respectively. The “Selective Index (S.I.)” value in data set [2] stood at 1.97.

As a reminder, the pIC50 is −log10 of the IC50, conventionally taken in molar units.
